In patent US20030118627A1 (DABUR RESEARCH FOUNDATION, priority 2001, published 2003):

Key:
Assay type in all cases: cell-based
[1] = tested on: Miapaca2; test: MTT cytotoxicity assay, Miapaca2 pancreas; conditions: Homo sapiens
Experimental: (§1) Briefly, a […] MTT cytotoxicity assay was performed, which is based on the principle of uptake of MTT (3-(4,5-dimethylthiazol-2-yl)-2,5-diphenyl tetrazolium bromide), a tetrazolium salt, by the metabolically active cells where it is metabolized by active mitochondria into a blue colored formazan product that is read spectrophoto-metrically. MTT was dissolved in phosphate buffered saline with a pH of 7.4 to obtain an MTT concentration of 5 mg/ml; the resulting mixture was filtered through a 0.22 micron filter to sterilize and remove a small amount of insoluble residue. For each type of tumor cell, 20,000 to 50,000 cells were seeded in a 96-well culture plate and incubated with the combination in a CO2 incubator for 24 hours. […] The assay was terminated after 24 hours by adding 100 ug (20 ul) of MTT to each well, then incubating for additional one hour, and finally adding 50 ul of 10% SDS-0.01N HCl to each well to lyse the cells and dissolve formazan. After incubating for one hour, the plate was read spectrophotometrically at 540 nm and the percentage cytotoxicity calculated.

[2] = tested on: PTC; test: MTT cytotoxicity assay, PTC colon; conditions: Homo sapiens
Experimental: as §1

[3] = tested on: 293; test: MTT cytotoxicity assay, 293 kidney; conditions: Homo sapiens, HEK293, 24 h, read-out: ED50 values of cytotoxicity
Experimental: as §1

[4] = tested on: U87MG; test: MTT cytotoxicity assay, U87MG glioblastoma; conditions: Homo sapiens, U-87 MG, 24 h, read-out: ED50 values of cytotoxicity
Experimental: as §1

[5] = tested on: PA 1; test: MTT cytotoxicity assay, PA 1 ovary; conditions: Homo sapiens
Experimental: as §1

[6] = tested on: DU145; test: MTT cytotoxicity assay, DU145 prostate; conditions: Homo sapiens
Experimental: as §1

[7] = tested on: MCF7; test: MTT cytotoxicity assay, MCF7 breast; conditions: Homo sapiens
Experimental: as §1

[8] = tested on: L132; test: MTT cytotoxicity assay, L132 lung; conditions: Homo sapiens
Experimental: as §1

[9] = tested on: Hep2; test: MTT cytotoxicity assay, Hep2 larynx; conditions: Homo sapiens, HEp-2, 24 h, read-out: ED50 values of cytotoxicity
Experimental: as §1

[10] = tested on: KB; test: MTT cytotoxicity assay, KB oral; conditions: Homo sapiens, 24 h, read-out: ED50 values of cytotoxicity
Experimental: as §1

[11] = tested on: MOLT 4; test: MTT cytotoxicity assay, MOLT 4 leukemia; conditions: Homo sapiens
Experimental: as §1

[12] = tested on: INT 407; test: MTT cytotoxicity assay, INT 407 intestine; conditions: Homo sapiens, 24 h, read-out: ED50 values of cytotoxicity
Experimental: as §1

[13] = 1.0 mM, read-out: Percent cytotoxicity
[14] = 2.5 mM, read-out: Percent cytotoxicity
[15] = 4 mM, read-out: Percent cytotoxicity
[16] = 5 mM, read-out: Percent cytotoxicity
[17] = 10 mM, read-out: Percent cytotoxicity
[18] = 24 h, read-out: ED50 values of cytotoxicity

SMILES: CC(=O)C(O)N1C(=O)CCC1C(=O)OCc1ccccc1 (centres unmarked) [MGC-3, N-(1-hydroxy-2-ketopropyl)-benzylpyroglutamate]
- cytotoxicity at 1000 µM ([1]; MIA PaCa-2, 1.0 mM, read-out: Percent cytotoxicity): 0%
- cytotoxicity at 2500 µM ([1]; MIA PaCa-2, 2.5 mM, read-out: Percent cytotoxicity): 0%
- cytotoxicity at 4000 µM ([1]; MIA PaCa-2, 4 mM, read-out: Percent cytotoxicity): 0%
- cytotoxicity at 5000 µM ([1]; MIA PaCa-2, 5 mM, read-out: Percent cytotoxicity): 12.9 ± 1%
- cytotoxicity at 10000 µM ([1]; MIA PaCa-2, 10 mM, read-out: Percent cytotoxicity): 14.1 ± 1.9%
- IC50 ([1]; MIA PaCa-2, 24 h, read-out: ED50 values of cytotoxicity): > 5000 µM
- cytotoxicity at 1000 µM [2, 13]: 0%
- cytotoxicity at 2500 µM [2, 14]: 32.9 ± 3.8%
- cytotoxicity at 4000 µM [2, 15]: 54.9 ± 3.8%
- cytotoxicity at 5000 µM [2, 16]: 56.8 ± 5.7%
- cytotoxicity at 10000 µM [2, 17]: 86.9 ± 7.6%
- IC50 [2, 18]: 3800 ± 700 µM
- IC50 [3]: 2000 ± 300 µM
- IC50 [4]: > 5000 µM
- IC50 ([5]; 24 h, PA 1 Ovarian, read-out: ED50 values of cytotoxicity): 1800 ± 600 µM
- cytotoxicity at 1000 µM ([5]; PA 1 Ovary, 1.0 mM, read-out: Percent cytotoxicity): 42.8 ± 4.9%
- cytotoxicity at 2500 µM ([5]; PA 1 Ovary, 2.5 mM, read-out: Percent cytotoxicity): 64.8 ± 5.9%
- cytotoxicity at 4000 µM ([5]; PA 1 Ovary, 4 mM, read-out: Percent cytotoxicity): 66.9 ± 5.9%
- cytotoxicity at 5000 µM ([5]; PA 1 Ovary, 5 mM, read-out: Percent cytotoxicity): 78.9 ± 7.4%
- cytotoxicity at 10000 µM ([5]; PA 1 Ovary, 10 mM, read-out: Percent cytotoxicity): 88.5 ± 8.4%
- cytotoxicity at 1000 µM ([6]; DU-145, 1.0 mM, read-out: Percent cytotoxicity): 29.4 ± 4.2%
- cytotoxicity at 2500 µM ([6]; DU-145, 2.5 mM, read-out: Percent cytotoxicity): 56.9 ± 4.3%
- cytotoxicity at 4000 µM ([6]; DU-145, 4 mM, read-out: Percent cytotoxicity): 64.8 ± 6.3%
- cytotoxicity at 5000 µM ([6]; DU-145, 5 mM, read-out: Percent cytotoxicity): 87.9 ± 8.3%
- cytotoxicity at 10000 µM ([6]; DU-145, 10 mM, read-out: Percent cytotoxicity): 88.4 ± 4%
- IC50 ([6]; DU-145, 24 h, read-out: ED50 values of cytotoxicity): 1800 ± 200 µM
- IC50 ([7]; MCF7, 24 h, MCF 7 Breast, read-out: ED50 values of cytotoxicity): > 5000 µM
- cytotoxicity at 1000 µM ([7]; MCF7 breast, 1.0 mM, read-out: Percent cytotoxicity): 0%
- cytotoxicity at 2500 µM ([7]; MCF7 breast, 2.5 mM, read-out: Percent cytotoxicity): 0%
- cytotoxicity at 4000 µM ([7]; MCF7 breast, 4 mM, read-out: Percent cytotoxicity): 0%
- cytotoxicity at 5000 µM ([7]; MCF7 breast, 5 mM, read-out: Percent cytotoxicity): 2.7 ± 0.1%
- cytotoxicity at 10000 µM ([7]; MCF7 breast, 10 mM, read-out: Percent cytotoxicity): 12.4 ± 1%
- cytotoxicity at 1000 µM [8, 13]: 0%
- cytotoxicity at 2500 µM [8, 14]: 30 ± 2.9%
- cytotoxicity at 4000 µM [8, 15]: 45.8 ± 4.5%
- cytotoxicity at 5000 µM [8, 16]: 52.9 ± 5.2%
- cytotoxicity at 10000 µM [8, 17]: 79.4 ± 5.9%
- IC50 [8, 18]: 4600 ± 1600 µM
- IC50 [9]: 2600 µM
- IC50 [10]: 2550 ± 400 µM
- IC50 ([11]; 24 h, Molt 4 Leukemia, read-out: ED50 values of cytotoxicity): 1650 ± 500 µM
- cytotoxicity at 1000 µM ([11]; MOLT 4 Leukemia, 1.0 mM, read-out: Percent cytotoxicity): 42.1 ± 4.3%
- cytotoxicity at 2500 µM ([11]; MOLT 4 Leukemia, 2.5 mM, read-out: Percent cytotoxicity): 54.9 ± 4.3%
- cytotoxicity at 4000 µM ([11]; MOLT 4 Leukemia, 4 mM, read-out: Percent cytotoxicity): 65.9 ± 4.3%
- cytotoxicity at 5000 µM ([11]; MOLT 4 Leukemia, 5 mM, read-out: Percent cytotoxicity): 87.9 ± 7.3%
- cytotoxicity at 10000 µM ([11]; MOLT 4 Leukemia, 10 mM, read-out: Percent cytotoxicity): 88.3 ± 7.4%
- IC50 [12]: 2850 ± 700 µM
